The values below are quoted from earlier work in patent US10905730B2, “Phytocannabinoid topical compositions for releiving pain” (priority 2017, dated 2021).

Each structure is given as a SMILES string. Read-outs that look alike come from different tables or passages of the source.

With `C=C(C)[C@@H]1CCC(C)=C[C@H]1c1c(O)cc(CCCCC)cc1O` [CBD, cannabidiol], the “solubility in organic solvents” value was “soluble in organic solvents such as pentane” and the solubility in water result was “insoluble in water”. Further, the chemical stability entry (acidic conditions) is given as “cyclizes to THC”. The chemical stability entry (strongly basic media and presence of air) was “oxidized to a quinone”.
